The record followed here is PMC5223566, “The Benzopyrone Biochanin-A as a reversible, competitive, and selective monoamine oxidase B inhibitor” (BMC Complementary and Alternative Medicine, 2017).

For orientation: IC50 means the point on the concentration scale where inhibition reaches its midpoint.

The target in assay [1] is T1, hMAO-A (Homo sapiens, UniProt P21397).
T1 construct: purchased Sigma-Aldrich; host or cells: baculovirus infected insect cells
T1 sequence (P21397 1-527): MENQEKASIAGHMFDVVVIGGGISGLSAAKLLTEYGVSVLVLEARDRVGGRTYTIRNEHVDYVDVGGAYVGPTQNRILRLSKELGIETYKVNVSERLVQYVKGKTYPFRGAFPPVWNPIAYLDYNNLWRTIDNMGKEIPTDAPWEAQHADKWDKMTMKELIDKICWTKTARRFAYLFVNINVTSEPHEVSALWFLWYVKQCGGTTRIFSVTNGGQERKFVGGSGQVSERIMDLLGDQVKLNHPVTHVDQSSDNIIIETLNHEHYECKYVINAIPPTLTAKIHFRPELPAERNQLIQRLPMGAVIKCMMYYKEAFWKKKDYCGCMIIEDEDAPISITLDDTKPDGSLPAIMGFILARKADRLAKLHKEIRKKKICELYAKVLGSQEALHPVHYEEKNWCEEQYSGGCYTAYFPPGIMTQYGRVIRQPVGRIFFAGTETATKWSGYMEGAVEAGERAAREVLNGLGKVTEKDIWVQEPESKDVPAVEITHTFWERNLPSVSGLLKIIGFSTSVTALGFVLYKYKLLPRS
The assay is described as follows: hMAO-A MAO-Glo luminescence assay. Format: biochemical. The following applies: 10 μg/mL; MAO-Glo kit.

Assay [2] addresses T2, recombinant human MAO-A (hMAO-A) (Homo sapiens, UniProt P21397).
T2 construct: purchased Sigma-Aldrich; host or cells: baculovirus infected insect cells
T2 sequence (P21397 1-527): T1 sequence (P21397 1-527)
The assay is described as follows: hMAO-A continuous spectrophotometric assay (enzymatic H2O2 production). Format: biochemical. To be noted: for RSA (relative selectivity for hMAO-A): hMAO-B IC50/hMAO-A IC50.
Method: (§1) A slightly modified continuous spectrophotometric assay [25] for measuring enzymatic H2O2 production was validated before the experiments. In this assay, the peroxidase chromogen reagent of 1 mM of vanillic acid and 500 μM 4-aminoantipyrine, and 4 U purpurogallin/mL of horseradish peroxidase (HRP) type-II in HBSS (pH 7.4) was prepared and validated with H2O2 standard curve. […] Isozymes were diluted to 0.7 U/mL final concentration by 10 mM HEPES in HBSS (pH 7.4). Substrates final concentrations were optimized to be 0.5 and 3 mM tyramine HCl and benzylamine HCl for hMAO-A and hMAO-B reactions. […] Stock solvents (ethanol or dimethyl sulfoxide) were kept ≤ 2% the final volume of all assays.
(§2) The six benzopyrones of 5 × final concentrations between 0 to 400 μM and PCSEE from 0 to 250 μg/mL of at least ten data points were prepared in HBSS (pH 7.4). […] Freshly prepared volumes of 50 μL of 2.5 × substrate and peroxidase chromogen mix (1:1) were added. Absorbance was immediately read at 490 nm by the Bio-Tek μQuant Monochromatic Microplate Spectrophotometer for time zero. H2O2 production progression for each enzyme was measured every 20 min for the duration of the assay. First read measurements and the blanks background were subtracted from all absorbance values.

The target of assay [3] is T3, recombinant human MAO-B (hMAO-B) (Homo sapiens, UniProt P27338).
T3 construct: purchased Sigma-Aldrich; host or cells: baculovirus infected insect cells
T3 sequence (P27338 1-520): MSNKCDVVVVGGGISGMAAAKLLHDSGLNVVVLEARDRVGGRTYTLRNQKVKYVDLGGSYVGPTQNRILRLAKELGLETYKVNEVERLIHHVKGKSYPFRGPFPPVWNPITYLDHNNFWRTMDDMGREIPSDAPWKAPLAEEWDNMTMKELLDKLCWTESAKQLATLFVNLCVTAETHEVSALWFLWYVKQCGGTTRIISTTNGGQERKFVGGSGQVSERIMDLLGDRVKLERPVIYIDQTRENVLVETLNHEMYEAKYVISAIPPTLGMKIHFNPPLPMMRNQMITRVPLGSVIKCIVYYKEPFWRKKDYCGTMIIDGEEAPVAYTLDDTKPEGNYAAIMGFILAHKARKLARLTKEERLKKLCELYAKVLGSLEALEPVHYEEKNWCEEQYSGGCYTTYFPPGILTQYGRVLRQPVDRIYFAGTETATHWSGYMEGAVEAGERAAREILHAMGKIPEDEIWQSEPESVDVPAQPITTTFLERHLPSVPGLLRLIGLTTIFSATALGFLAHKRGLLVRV
As to the kind of experiment: hMAO-B continuous spectrophotometric assay (enzymatic H2O2 production). The following applies: for IC50: 3 mM benzylamine, 40 min preincubation at RT, ± SEM. Format: biochemical.
Method: as §1, §2

The target of assay [4] is T1, hMAO-A. The assay is described as follows: hMAO-A recovery after dilution (reversibility). Format: biochemical.
Assay [5] in a line: H2O2 scavenging activity assay. The following applies: 15 μM H2O2; PCSEE and ascorbic acid 62.5, 125, 250 μg/mL; BIO-A 6.25, 12.5, 25 μg/mL. As for the experimental part:
The H2O2 scavenging activity of PCSEE and BIO-A at their highest used MAO inhibitory concentrations was investigated and compared to the standard scavenger L-ascorbic acid. […] Buffer substituted the H2O2 (n = 4) to make blank wells. Immediately, peroxidase chromogen-containing vanillic acid, 4-aminoantipyrine, and HRP type-II were prepared as in the MAO spectrophotometric assay and added as 25 μL per well. The developing color at 490 nm was optimally read within 15 min at RT using Bio-Tek Synergy HTX Multi-Reader absorbance.

Assay [6] deals with T4, hMAO-B (Homo sapiens, UniProt P27338).
T4 sequence (P27338 1-520): T3 sequence (P27338 1-520)
As to the kind of experiment: Michaelis-Menten kinetics of hMAO-B. The following applies: mixed enzyme inhibition model, GraphPad Prism; ± SEM.

Assay [7] deals with T4, hMAO-B. The assay is described as follows: hMAO-B recovery after dilution (reversibility). More on the design: purchased Sigma-Aldrich; host or cells: baculovirus infected insect cells. Format: biochemical.
The target of assay [8] is T4, hMAO-B. The assay is described as follows: hMAO-B MAO-Glo luminescence assay. Format: biochemical. More on the design: purchased Sigma-Aldrich; host or cells: baculovirus infected insect cells. The following applies: 10 μg/mL; MAO-Glo kit. The method, then:
A slightly modified continuous spectrophotometric assay for measuring enzymatic H2O2 production was validated before the experiments. In this assay, the peroxidase chromogen reagent of 1 mM of vanillic acid and 500 μM 4-aminoantipyrine, and 4 U purpurogallin/mL of horseradish peroxidase (HRP) type-II in HBSS (pH 7.4) was prepared and validated with H2O2 standard curve. The linearity of reaction on the instrument was confirmed to reach up to 1.76 nmol per reaction volume with R^2 of 0.9999. Isozymes were diluted to 0.7 U/mL final concentration by 10 mM HEPES in HBSS (pH 7.4). Substrates final concentrations were optimized to be 0.5 and 3 mM tyramine HCl and benzylamine HCl for hMAO-A and hMAO-B reactions. The assay was run with and without different standard MAOIs with different selectivities (DEP, CLORG, pirlindole, and rasagiline) and monitored for few hours. Isozymes were found stable within the time of incubation. Stock solvents (ethanol or dimethyl sulfoxide) were kept ≤ 2% the final volume of all assays.
A buffer of 12.5 μL was used to make equivalent blank volumes of wells without enzyme. […] Reporter luciferase detects reagent of 50 μL was incubated with each reaction for 20-30 min to inhibit the enzyme and produce luminescence. Arbitrary light units (ALU) signal changes were measured by Synergy HTX Multi-Reader from Bio-Tek and converted to percent control change.

Where [9] appears, read: 0.1 × IC50 after 100-fold dilution (diluted).
Where [10] appears, read: 1 × IC50 after 100-fold dilution (diluted).
[11] abbreviates: recovery after dilution, monitored with time.
[12] abbreviates: spectrophotometric assay, 0.5 mM tyramine, 40 min preincubation at RT, ± SEM, read-out: hMAO-A IC50.

Where “and” joins values, the source holds several entries; their conditions need not be identical. Equal values may be shown once. Read-outs that look alike come from different tables or passages of the source.

For the molecule `O=c1ccc2ccc3occc3c2o1` [IPS, isopsoralen], in assay [1], the “relative effectiveness between isozymes, luminescence assay” value (from here on “relative effectiveness between isozymes”) was “more effective against hMAO-A”. In assay [2], the half-maximal inhibitory concentration (IC50) worked out at 20.6 ± 2.45 µM and the “RSA (relative selectivity for hMAO-A)” value is on record as 2.5. The IC50 in assay [3] (spectrophotometric assay) was 51 ± 0.24 µM.
As to `C#CCN(C)[C@H](C)Cc1ccccc1` [DEP, selegiline, reference compound], the “% hMAO-A H2O2 production control” value in assay [4] (setting [9]) is reported as 7%.
As to `COc1ccc(-c2coc3cc(O)cc(O)c3c2=O)cc1` [BIO-A, 5,7-dihydroxy-4'-methoxyisoflavone], the H2O2 scavenging activity result in assay [5] is “did not show any scavenging activities”. The “% hMAO-A H2O2 production control” value in assay [4] (setting [9]) was 90%; in assay [4] (1 × IC50, undiluted) it was 44.5%; in assay [4] (setting [10]), 52% and ~ 50%. Further, the “reversibility of hMAO-A inhibition” value in assay [4] (setting [11]) is reported as “reversible inhibitor”. Further, in assay [6], the “hMAO-B inhibition model alpha” value is on record as more than 1. For the same molecule, the “% hMAO-B H2O2 production control” value was 80% in assay [7] (setting [9]); 36% in assay [7] (1 × IC50, undiluted); 51% and ~ 50% in assay [7] (setting [10]). For the same molecule, the “reversibility of hMAO-B inhibition” value in assay [7] (setting [11]) is “reversible inhibitor”.
As to `CC(C)=CCc1c(O)cc2c(c1O)C(=O)C[C@@H](c1ccc(O)cc1)O2` [6-PN, 6-prenylnaringenin], the “relative effectiveness between isozymes” value in assay [8] is given as “more effective against hMAO-B”. In addition, the IC50 worked out at 54.53 ± 0.31 µM in assay [2] (setting [12]) and 17.9 ± 1.84 µM in assay [3] (spectrophotometric assay). Further, the “RSB (relative selectivity for hMAO-B)” value in assay [3] (hMAO-A IC50/hMAO-B IC50) is recorded as 3.0.
As to `CC(C)=CCc1cc(-c2coc3cc(O)ccc3c2=O)ccc1O` [NBI, neobavaisoflavone], in assay [1], the “relative effectiveness between isozymes” value was “more effective against hMAO-A”. Moreover, the “RSA (relative selectivity for hMAO-A)” value in assay [2] amounted to 1.2. For the same molecule, the IC50 in assay [2] (setting [12]) came to 66.5 ± 5.66 µM; in assay [3] (spectrophotometric assay), 77.3 ± 10.6 µM.
The corresponding values for `O=c1ccc2cc3ccoc3cc2o1` [PS, psoralen] are “more effective against hMAO-A”, 2.0, 89 ± 5.74 µM and 175 ± 50.9 µM.
Take `O=C1O[C@H]([C@@H](O)CO)C(O)=C1O` [ascorbic acid, L-ascorbic acid, reference compound]: the H2O2 scavenging activity entry in assay [5] is given as “complete scavenging activity”.
Turning to `CC(C)=CCc1cc2c(cc1O)oc(=O)c1c3ccc(O)cc3oc21` [PSD, psoralidin], the “hMAO-A inhibition (in words)” value in assay [2] (spectrophotometric assay, up to 400 μM) was “no detectable inhibition”. In addition, the “hMAO-B inhibition (in words)” value in assay [3] (spectrophotometric assay, up to 400 μM, p < 0.001) is given as “partial inhibition”.
